In US8828696B2, “Use of Penicillin G Procaine as a selective antimicrobial agent in the production of alcohol by fermentation” (Lallemand Specialites, Inc, priority 2008, dated 2014):
Like-named read-outs stand apart in the source and are kept apart here.

System: Saccharomyces cerevisiae yeast
Assay type: cell-based
Experimental: A study was conducted to determine the degree of impact of the fermentation antimicrobial Penicillin G Procaine and Penicillin G potassium during alcohol production by fermentation. The antimicrobial impact was inferred by conducting a series of fermentations and measuring if the above said antibiotics interfered with the cell growth and the fermentation function of Saccharomyces cerevisiae yeast used in the fermentation phase. This study provided analysis of what impact, if any, the Penicillin G Procaine or Penicillin G Potassium has on the yeast during lab scale fermentations, specifically BioFerm® XR yeast from North American Bioproducts Corporation (NABC). This study observed the ability of yeast to replicate and ferment a corn mash substrate with and without the presence of Penicillin G Procaine or Penicillin G Potassium.
This study was set up in a series of fermentation vessels. All antibiotic concentrations were tested in triplicate. Cell counts were done on one flask for each treatment at 12, 24, 36 and 48 hours and testing of the fermentation reactions by HPLC was also performed at 12, 24, 36 and 48 hours. The experiment was set as follows:
1. Antibiotic solutions were prepared to provide a sterile 1 and 10 μg/ml solutions.
2. Antibiotic solutions tested were as follows:
3. Fermentations were set up using 31% solids corn mash using saccharifying enzymes and the following procedure:
A. Yeast Conditioning: • 1. Add 2 g yeast to 10 ml sterile water for each 3 flasks to test, (14 g yeast to 70 ml water) into a sterile 250 ml flask and place in water bath set to 100° F. • 2. Incubate at 100° F. for 30 minutes with occasional mixing. • 3. Remove flasks from water bath and divide suspension between the all flasks for the trial.
B. Fermentation Procedure • 1. To prepared mash, add the following. • a. Add 0.58 g urea/liter mash and mix. • b. Add 0.2 ml GA per liter and mix. • 2. Remove sample for background HPLC testing. • 3. Add antibiotic solution to labeled sterile 250 ml flasks. • 4. Add hydrated yeast suspension to mash and mix well. • 5. Add sterile stir bar to each flask and add about 150 ml mash into each 250 ml flask for a total of 21 flasks. • 6. Cover each flask with a gas trap in a sterilized stopper. • 7. Place in a 33° C. water bath with continuous mixing at 280 rpm at 75% power. • 8. Remove sample at 12 hr interval to perform cell count, viability and budding. • 9. Incubate sample up to 48 hours, enough time for complete fermentation • 10. Collect samples at the following times for cell counts and HPLC testing: 12 hours; 24 hours; 36 hours and 48 hours

[1] = 5 ppm, 12 hours, total cell count x % viability
[2] = 5 ppm, 12 hr fermentation sample
[3] = 5 ppm, 24 hours, total cell count x % viability
[4] = 5 ppm, 24 hr fermentation sample
[5] = 5 ppm, 36 hours, total cell count x % viability
[6] = 5 ppm, 36 hr fermentation sample
[7] = 5 ppm, 48 hours, total cell count x % viability
[8] = 5 ppm, 48 hr fermentation sample
[9] = 5 ppm, average of 12, 24, 36 and 48 hour samples
[10] = 15 ppm, 12 hours, total cell count x % viability
[11] = 15 ppm, 12 hr fermentation sample
[12] = 15 ppm, 24 hours, total cell count x % viability
[13] = 15 ppm, 24 hr fermentation sample
[14] = 15 ppm, 36 hours, total cell count x % viability
[15] = 15 ppm, 36 hr fermentation sample
[16] = 15 ppm, 48 hours, total cell count x % viability
[17] = 15 ppm, 48 hr fermentation sample
[18] = 15 ppm, average of 12, 24, 36 and 48 hour samples
[19] = 30 ppm, 12 hours, total cell count x % viability
[20] = 30 ppm, 12 hr fermentation sample
[21] = 30 ppm, 24 hours, total cell count x % viability
[22] = 30 ppm, 24 hr fermentation sample
[23] = 30 ppm, 36 hours, total cell count x % viability
[24] = 30 ppm, 36 hr fermentation sample
[25] = 30 ppm, 48 hours, total cell count x % viability
[26] = 30 ppm, 48 hr fermentation sample
[27] = 30 ppm, average of 12, 24, 36 and 48 hour samples
[28] = average for all three trials (5, 15, 30 ppm), 12-48 hour samples
[29] = average for all three trials (5, 15, 30 ppm), 12 hours
[30] = average for all three trials (5, 15, 30 ppm), 24 hours
[31] = average for all three trials (5, 15, 30 ppm), 36 hours
[32] = average for all three trials (5, 15, 30 ppm), 48 hours
[33] = average for all three trials (5, 15, 30 ppm), Average 12-48 hours

CC1(C)S[C@@H]2[C@H](NC(=O)Cc3ccccc3)C(=O)N2[C@H]1C(=O)O.CCN(CC)CCOC(=O)c1ccc(N)cc1 [Penicillin G Procaine]
viable yeast cell count [1]: 535
% B (% budding) [2]: 15.0%
% V (% viability) [2]: 89%
CC (cell count) [2]: 601
viable yeast cell count [3]: 489
% B (% budding) [4]: 7.9%
% V (% viability) [4]: 88%
CC (cell count) [4]: 556
viable yeast cell count [5]: 432
% B (% budding) [6]: 9.2%
% V (% viability) [6]: 83%
CC (cell count) [6]: 521
viable yeast cell count [7]: 404
% B (% budding) [8]: 8.0%
% V (% viability) [8]: 75%
CC (cell count) [8]: 538
viable yeast cell count (5 ppm, Average 12-48 hours): 465
A % B (average % budding) [9]: 10.0%
A % V (average % viability) [9]: 83.8%
ACC (average cell count) [9]: 554
viable yeast cell count [10]: 494
% B (% budding) [11]: 17.7%
% V (% viability) [11]: 86%
CC (cell count) [11]: 574
viable yeast cell count [12]: 528
% B (% budding) [13]: 7.8%
% V (% viability) [13]: 91%
CC (cell count) [13]: 580
viable yeast cell count [14]: 410
% B (% budding) [15]: 7.3%
% V (% viability) [15]: 78%
CC (cell count) [15]: 526
viable yeast cell count [16]: 385
% B (% budding) [17]: 9.0%
% V (% viability) [17]: 74%
CC (cell count) [17]: 520
viable yeast cell count (15 ppm, Average 12-48 hours): 454
A % B (average % budding) [18]: 10.4%
A % V (average % viability) [18]: 82.3%
ACC (average cell count) [18]: 550
viable yeast cell count [19]: 528
% B (% budding) [20]: 14.8%
% V (% viability) [20]: 85%
CC (cell count) [20]: 621
viable yeast cell count [21]: 496
% B (% budding) [22]: 10.3%
% V (% viability) [22]: 89%
CC (cell count) [22]: 557
viable yeast cell count [23]: 400
% B (% budding) [24]: 7.0%
% V (% viability) [24]: 78%
CC (cell count) [24]: 513
viable yeast cell count [25]: 385
% B (% budding) [26]: 6.0%
% V (% viability) [26]: 78%
CC (cell count) [26]: 493
viable yeast cell count (30 ppm, Average 12-48 hours): 452
A % B (average % budding) [27]: 9.5%
A % V (average % viability) [27]: 82.5%
ACC (average cell count) [27]: 546
A % B (average % budding) [28]: 10.0%
A % V (average % viability) [28]: 82.8%
ACC (average cell count) [28]: 550
viable yeast cell count [29]: 519
viable yeast cell count [30]: 504
viable yeast cell count [31]: 414
viable yeast cell count [32]: 391
viable yeast cell count [33]: 457

CC1(C)S[C@@H]2[C@H](NC(=O)Cc3ccccc3)C(=O)N2[C@H]1C(=O)[O-].[K+] [Penicillin G Potassium]
viable yeast cell count [1]: 510
% B (% budding) [2]: 13.8%
% V (% viability) [2]: 88%
CC (cell count) [2]: 580
viable yeast cell count [3]: 500
% B (% budding) [4]: 8.4%
% V (% viability) [4]: 90%
CC (cell count) [4]: 556
viable yeast cell count [5]: 421
% B (% budding) [6]: 8.1%
% V (% viability) [6]: 81%
CC (cell count) [6]: 520
viable yeast cell count [7]: 381
% B (% budding) [8]: 8.9%
% V (% viability) [8]: 75%
CC (cell count) [8]: 508
viable yeast cell count (5 ppm, Average 12-48 hours): 453
A % B (average % budding) [9]: 9.8%
A % V (average % viability) [9]: 83.5%
ACC (average cell count) [9]: 541
viable yeast cell count [10]: 469
% B (% budding) [11]: 13.3%
% V (% viability) [11]: 85%
CC (cell count) [11]: 552
viable yeast cell count [12]: 465
% B (% budding) [13]: 7.5%
% V (% viability) [13]: 86%
CC (cell count) [13]: 541
viable yeast cell count [14]: 435
% B (% budding) [15]: 6.2%
% V (% viability) [15]: 82%
CC (cell count) [15]: 530
viable yeast cell count [16]: 372
% B (% budding) [17]: 7.3%
% V (% viability) [17]: 72%
CC (cell count) [17]: 516
viable yeast cell count (15 ppm, Average 12-48 hours): 435
A % B (average % budding) [18]: 8.6%
A % V (average % viability) [18]: 81.3%
ACC (average cell count) [18]: 535
viable yeast cell count [19]: 535
% B (% budding) [20]: 12.3%
% V (% viability) [20]: 86%
CC (cell count) [20]: 622
viable yeast cell count [21]: 462
% B (% budding) [22]: 8.7%
% V (% viability) [22]: 88%
CC (cell count) [22]: 525
viable yeast cell count [23]: 401
% B (% budding) [24]: 8.7%
% V (% viability) [24]: 80%
CC (cell count) [24]: 501
viable yeast cell count [25]: 393
% B (% budding) [26]: 6.4%
% V (% viability) [26]: 77%
CC (cell count) [26]: 511
viable yeast cell count (30 ppm, Average 12-48 hours): 448
A % B (average % budding) [27]: 9.0%
A % V (average % viability) [27]: 82.8%
ACC (average cell count) [27]: 540
A % B (average % budding) [28]: 9.1%
A % V (average % viability) [28]: 82.5%
ACC (average cell count) [28]: 539
viable yeast cell count [29]: 505
viable yeast cell count [30]: 476
viable yeast cell count [31]: 419
viable yeast cell count [32]: 382
viable yeast cell count [33]: 445
